{"source": "paper PMC3169411", "about": "“Structure of aldose reductase from Giardia lamblia” (Acta Crystallographica Section F: Structural Biology and …, 2011)", "biological_target": "T1, G. lamblia aldose reductase (Giardia duodenalis, UniProt A8BGX6)", "T1 construct": "gene GL50803_007260; full-length; E. coli BL21(DE3); observed Ser0-Asp313; dimer", "T1 sequence (A8BGX6 1-313)": "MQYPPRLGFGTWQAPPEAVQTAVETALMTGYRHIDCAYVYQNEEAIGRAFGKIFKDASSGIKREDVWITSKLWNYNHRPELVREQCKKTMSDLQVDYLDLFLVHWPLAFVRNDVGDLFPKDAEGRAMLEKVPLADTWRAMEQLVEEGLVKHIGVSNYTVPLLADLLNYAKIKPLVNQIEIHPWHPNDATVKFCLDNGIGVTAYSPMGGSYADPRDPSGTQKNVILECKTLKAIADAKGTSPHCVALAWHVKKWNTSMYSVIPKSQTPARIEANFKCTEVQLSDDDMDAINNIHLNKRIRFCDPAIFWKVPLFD", "assay": "X-ray crystallography, […] Å", "format": "binding", "settings": "co-purified (none added); crystals from 20% PEG 3350, 200 mM sodium formate, 100 mM Bis-Tris propane; cofactor site, Arg269 and His242", "data": [{"smiles": "NC(=O)c1ccc[n+]([C@@H]2O[C@H](COP(=O)(O)OP(=O)(O)OC[C@H]3O[C@@H](n4cnc5c(N)ncnc54)[C@H](OP(=O)(O)O)[C@@H]3O)[C@@H](O)[C@H]2O)c1", "note": "[NADP^+]", "values": [{"measurement": "X-ray crystallography, 1.75 Å", "value": "One NADP^+ molecule and one ethylene glycol molecule were modelled in each chain"}]}]}
